The values below are quoted from earlier work in US9034614B2, “Method of preparing alkyl butyrate from fermented liquid using microorganisms” (priority 2010, dated 2015).

In brackets after ≈: the same amount, converted by molar mass. Read-outs that look alike come from different tables or passages of the source.

For the molecule `CCCCOC(=O)CCC` [Butyl butyrate], under “stated in words”, the Solubility in water entry is “Insoluble”.
Take `CCO` [Ethanol, reference compound]: the Solubility in water entry (stated in words) is “Miscible”.
Turning to `CCCC(=O)OCC` [Ethyl butyrate], the Solubility in water is 4900 µg/mL (≈ 42.2 mM).
